How the values were obtained:
[1] = target: T1, JAK3 (Homo sapiens, UniProt P52333); test: Enzymatic JAK3 kinase activity; assay type: biochemical; settings: dose-response curves; read-out: IC50 ± SD, JAK3
T1 sequence (P52333 1-1124): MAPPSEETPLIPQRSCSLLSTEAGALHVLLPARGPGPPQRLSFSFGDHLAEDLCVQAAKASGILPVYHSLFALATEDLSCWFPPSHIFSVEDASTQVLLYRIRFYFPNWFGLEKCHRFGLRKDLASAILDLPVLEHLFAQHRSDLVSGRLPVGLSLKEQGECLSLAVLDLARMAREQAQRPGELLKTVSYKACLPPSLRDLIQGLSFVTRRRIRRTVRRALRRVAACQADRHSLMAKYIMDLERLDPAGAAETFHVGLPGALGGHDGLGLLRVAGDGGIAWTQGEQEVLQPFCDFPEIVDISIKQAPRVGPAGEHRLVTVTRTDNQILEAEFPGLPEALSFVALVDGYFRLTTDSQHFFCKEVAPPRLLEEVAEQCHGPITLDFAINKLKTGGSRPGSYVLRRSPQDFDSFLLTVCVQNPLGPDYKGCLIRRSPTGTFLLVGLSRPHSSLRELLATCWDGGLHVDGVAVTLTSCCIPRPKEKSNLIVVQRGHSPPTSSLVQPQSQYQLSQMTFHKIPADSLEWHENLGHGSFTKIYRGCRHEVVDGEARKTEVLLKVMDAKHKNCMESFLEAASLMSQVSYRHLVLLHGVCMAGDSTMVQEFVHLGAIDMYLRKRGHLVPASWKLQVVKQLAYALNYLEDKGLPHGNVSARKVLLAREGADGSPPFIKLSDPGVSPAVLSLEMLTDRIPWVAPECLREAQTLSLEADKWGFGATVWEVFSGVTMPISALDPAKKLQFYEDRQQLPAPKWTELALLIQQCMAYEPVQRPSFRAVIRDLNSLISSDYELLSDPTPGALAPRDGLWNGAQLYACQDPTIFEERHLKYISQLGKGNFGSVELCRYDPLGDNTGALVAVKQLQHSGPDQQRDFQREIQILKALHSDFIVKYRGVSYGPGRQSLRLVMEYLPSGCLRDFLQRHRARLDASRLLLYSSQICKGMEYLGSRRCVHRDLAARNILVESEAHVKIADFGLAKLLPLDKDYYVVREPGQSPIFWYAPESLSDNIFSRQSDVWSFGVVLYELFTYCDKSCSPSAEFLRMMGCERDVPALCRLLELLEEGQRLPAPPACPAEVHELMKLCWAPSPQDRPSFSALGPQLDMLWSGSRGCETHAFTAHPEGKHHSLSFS
Protocol: (§1) Enzymatic Syk kinase activity assays were performed as previously described. Enzymatic activity of JAK1, JAK2, JAK3, and Tyk kinases was evaluated as previously described.

[2] = target: Syk (Homo sapiens, UniProt P43405); test: Enzymatic Syk kinase activity; assay type: biochemical; settings: dose-response curves; read-out: IC50 ± SD, Syk
Protocol: as §1

[3] = Cytotoxicity, ATP levels (ATPlite), RDEB_L1 cells; assay type: cell-based; settings: human, RDEB L1 cells (RDEB patient-derived cell line)
Protocol: The viability of RDEB patient-derived cell lines or NHK was evaluated by measuring the ATP levels as an indirect readout of the potential cytotoxicity effect of compounds. Cells were plated and treated exactly with the same conditions as those followed in the AlphaLISA assay, described above. To measure ATP levels, cells were processed using the ATPlite™ 1step luminescence-based assay (PerkinElmer 6,016,731), following the manufacturer’s protocol. 25 μL of ATPlite™ reagent was added directly over cells and plates were covered with a sealing film and shaken for 25 min using a microtiter plate shaker. Luminescence was measured in a Luminoskan Ascent luminometer (Thermo Fisher Scientific). 10 μM of Staurosporine was used as a reference compound and control for the total cytotoxicity.

[4] = tested on: NHK cells; test: Cytotoxicity, ATP levels, normal human keratinocytes (NHK); assay type: cell-based; settings: NHK cells, ATP levels, at 100 µM
How it was run: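 RDEB patient-derived cells, CHO cells or normal human keratinocytes were plated and treated as in the AlphaLISA assay. Viability was read as ATP by ATPlite 1step luminescence; 10 μM staurosporine served as the total-cytotoxicity control.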

[5] = target: T2, SAPK2α (Homo sapiens, UniProt Q16539); test: Selectivity panel (Eurofins): p38/SAPK2α kinase; assay type: biochemical
T2 construct: Eurofins Pharma Discovery Services
T2 sequence (Q16539 whole entry): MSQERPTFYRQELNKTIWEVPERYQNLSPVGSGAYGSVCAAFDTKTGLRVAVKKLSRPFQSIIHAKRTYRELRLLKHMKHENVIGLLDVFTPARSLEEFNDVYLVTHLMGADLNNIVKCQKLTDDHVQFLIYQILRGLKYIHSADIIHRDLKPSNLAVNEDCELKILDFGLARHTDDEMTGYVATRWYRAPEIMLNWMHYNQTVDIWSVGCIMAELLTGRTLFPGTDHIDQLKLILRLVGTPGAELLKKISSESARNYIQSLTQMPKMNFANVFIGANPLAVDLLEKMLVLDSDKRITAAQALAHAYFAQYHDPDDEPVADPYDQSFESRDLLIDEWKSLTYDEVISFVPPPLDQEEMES

[6] = target: T3, Dopamine transporter (Homo sapiens, UniProt Q01959); test: Selectivity panel (Eurofins): dopamine transporter; assay type: binding; settings: n = 1, duplicate
T3 construct: Eurofins Pharma Discovery Services
T3 sequence (Q01959 whole entry): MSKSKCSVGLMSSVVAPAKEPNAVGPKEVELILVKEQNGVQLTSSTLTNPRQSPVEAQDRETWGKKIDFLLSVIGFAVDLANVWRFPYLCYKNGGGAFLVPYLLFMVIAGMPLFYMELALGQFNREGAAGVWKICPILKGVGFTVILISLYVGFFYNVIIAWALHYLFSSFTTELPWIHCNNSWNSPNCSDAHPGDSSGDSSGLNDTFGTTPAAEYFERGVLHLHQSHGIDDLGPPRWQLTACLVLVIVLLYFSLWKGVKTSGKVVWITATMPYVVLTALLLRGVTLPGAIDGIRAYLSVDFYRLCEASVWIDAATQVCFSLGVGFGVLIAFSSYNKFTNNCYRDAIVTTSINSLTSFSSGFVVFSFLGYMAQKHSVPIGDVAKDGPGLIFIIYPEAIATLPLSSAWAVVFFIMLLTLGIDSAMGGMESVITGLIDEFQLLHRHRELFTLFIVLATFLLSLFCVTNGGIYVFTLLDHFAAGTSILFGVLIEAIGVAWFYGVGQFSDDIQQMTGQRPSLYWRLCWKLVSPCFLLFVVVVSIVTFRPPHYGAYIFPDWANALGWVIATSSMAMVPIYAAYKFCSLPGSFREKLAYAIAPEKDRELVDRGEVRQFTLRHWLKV
Protocol: (§2) Selectivity was evaluated at Eurofins Pharma Discovery Services at 3 µM, 10 µM, and 30 µM in duplicate using a selection of 84 representative kinases and 44 GPCRs, transporters, nuclear receptors (NR), enzymes, and ion channels.

[7] = tested on: Kappa (KOP); test: Selectivity panel (Eurofins): Kappa (KOP); assay type: binding; settings: n = 1, duplicate
Protocol: as §2

| Compound | IC50 [1] [nM] | IC50 [2] [nM] | IC50 [3] [nM] | Cytotox. % inhibition of viability [4] | inhibition at 3 µM ([5]; at 3 μM, n = 1, duplicate, read-out: % inhibition, SAPK2α) [%] | inhibition at 10 µM ([5]; at 10 μM, n = 1, duplicate, read-out: % inhibition, SAPK2α) [%] | inhibition at 30 µM ([5]; at 30 μM, n = 1, duplicate, read-out: % inhibition, SAPK2α) [%] | antagonism/inhibition of p38/SAPK2α kinase ([5]; at concentrations of 3 and 10 µM) [%] | inhibition at 3 µM ([6]; at 3 μM) [%] | inhibition at 10 µM ([6]; at 10 μM) [%] | inhibition at 30 µM ([6]; at 30 μM) [%] | % inhibition, Kappa (KOP) ([7]; at 3 μM) [%] | % inhibition, Kappa (KOP) ([7]; at 10 μM) [%] | % inhibition, Kappa (KOP) ([7]; at 30 μM) [%] |
| --- | --- | --- | --- | --- | --- | --- | --- | --- | --- | --- | --- | --- | --- | --- |
| NC(=O)Cn1ccc2ccc(-c3cnc(N)c(C(=O)NC4C5CC6CC4CC(O)(C6)C5)n3)cc21 (centres unmarked) [Compound 1] | 60 ± 6 | 1720 ± 440 | – | – | – | – | – | – | – | – | – | – | – | – |
| C#Cc1cc(-c2ccncc2)c(-c2cccc(F)c2)nc1N [Compound 7] | – | – | > 100000 | 19% ± 11 at 100 (n=4) | 90 | 103 | 107 | ≥ 50 | 17 | 40 | 64 | 12 | 32 | 54 |

Source: paper PMC11329504, “Identification of novel small molecule-based strategies of COL7A1 upregulation and readthrough activity for the treatment of recessive dystrophic epidermolysis bullosa” (Scientific Reports, 2024)
